Legend:
[1] = system: cytokine gene expression; test: cytokine gene expression study on blood samples before and after oxymatrine (FIG. 4); type: in vivo, human; conditions: blood samples before and after taking oxymatrine for 15 months, one patient
Text: A cytokine gene expression study on blood samples before (Sample 2) and after (Sample 3) taking oxymatrine for 15 months in one patient, is graphically illustrated in FIG. 4. […] FIG. 5 illustrates that neutralizing antibodies CBV 3 and CBV 4 were obtained serially over a three year period (performed by ARUP laboratory, Salt Lake City, UT).

[2] = system: enterovirus; test: case report Example 10, acute enterovirus infection of the gastrointestinal tract; type: in vivo, human
Text: A person developed subacute onset of severe fatigue, nausea, anorexia and progressive weight loss of 20 pounds following an upper respiratory infection.

[3] = system: echoviruses; conditions: in vitro; mechanism not defined; cited from earlier work
[4] = system: coxsackievirus B; conditions: in vitro; mechanism not defined; cited from earlier work
[5] = system: enterovirus; test: case report Example 4, treatment of chronic fatigue; type: in vivo, human
Experimental: A person with a known history of frequent respiratory infections and vasovagal syncope developed respiratory infection, which was followed by bedridden fatigue. Enteroviral protein was detected in the stomach biopsy consistent with chronic enterovirus infection. […] After vigorous exercise, they would still have relapses of bedridden fatigue for one day but continued to work 10-12 hours per day for the next 12 months, walking two miles per day. Laboratory tests were normal while on therapy.

[6] = system: hepatitis B; conditions: oral, after one year of treatment; comparable to interferon-α injection; cited from earlier work
[7] = system: enterovirus; test: case report Example 3, treatment of chronic fatigue; type: in vivo, human
Experimental: A person who had recurrent episodes of debilitating fatigue became totally incapacitated after approximately 17 years. The patient was treated with a combination of alpha and gamma interferon for six weeks with acceptable results. They went into remission but relapsed nine months later after developing a minor upper respiratory infection. They improved minimally after several months of bed rest, but was barely able to work six hours per day. They had brain fog, myalgia (7/10 pain) and was barely able to walk even 1-2 blocks.
Three days after taking oxymatrine at a dose of 300 mg bid, the myalgia intensified (10/10 pain), especially one hour after taking the pills. One week after starting oxymatrine, routine laboratory tests including CBC, chemistry panel and creatine phosphokinase (CPK) were normal. They continued having significant fatigue and myalgia for the next three weeks, but the symptoms resolved one week after stopping the medication. Mild increase in myalgia recurred three days after resuming oxymatrine, but resolved after continuing the medication for the next two weeks. The patient felt well at the end of three months with minimal discomfort in a few muscle groups.
Severe myalgia recurred after resuming vigorous exercise for three weeks while taking oxymatrine. They had to stop exercise for the two months allowing cessation of myalgia. After taking oxymatrine for six months, the patient felt well. Over the next six months after stopping the medication, the patient continuously performed heavy physical activities without significant difficulty. After developing another episode of upper respiratory symptoms, their symptoms relapsed. They have resumed oxymatrine but experienced increasing myalgia as the fatigue improved.

[8] = system: Mycobacterium avium complex (MAC); test: case report Example 8, Mycobacterium avium complex infection; type: in vivo, human
Experimental: A person with known history of Mycobacterium avium complex (MAC) infection of the lung and bronchiectasis for several years was treated with clarithromycin, ethambutol, ciprofloxacin and rifabutin for about five years. As a result of persistent positive sputum culture for MAC, the patient was also treated with gamma interferon (an immune booster) without significant benefit. Intravenous amikacin was added following right middle and left lingula lobectomy. In spite of the above therapy, sputum and repeat bronchial washing obtained by bronchoscopy grew MAC within three weeks. A computed tomography scan of the chest remained unchanged except for the post-surgical changes.
Sputum became clear in color then resolved. About two months after the start of oxymatrine, the patient had fevers, flu-like symptoms, increase in non-productive cough, bilateral uveitis and elevation of liver enzymes to 3.5 times normal values. The symptoms lasted two weeks and resolved after tapering dose of oxymatrine to 200 mg bid. Liver enzymes returned to normal within six weeks. […] The anti-MAC medications were discontinued after […] of oxymatrine therapy. The dose of oxymatrine was tapered to 100 mg tid at four and a half months of therapy and then stopped after six months of total therapy. The patient felt well at the six month follow-up.

In the case of O=C1CCC[C@@H]2[C@H]3CCC[N+]4([O-])CCC[C@@H](CN12)[C@@H]34 (stereo partly shown) [oxymatrine], the “Th1 cytokines gene expression (interleukin-2, interleukin-12, interleukin-15)” value [1] is reported as “significant increase”, the “regulatory Th2 cytokine gene expression (interleukin-10)” value [1] is reported as “significant decrease” and the symptoms ([2]; 200 mg bid) is reported as “promptly responded”. For the same compound, the activity ([2]; after taking oxymatrine for ten days) was “resumed their normal activity”, the “growth inhibition of echoviruses in cell cultures” value [3] was “growth inhibition” and the “growth inhibition of coxsackievirus B in cell cultures” value [4] was “growth inhibition”. For the same compound, the clinical outcome ([5]; after taking the medication for six weeks, previously bedridden fatigue) was “returned to full-time work”, the tolerability ([5]; in vivo) was “tolerated well without any adverse reactions” and the laboratory tests ([5]; while on therapy) was “normal”. For the same compound, the overall cure rate [6] was “about 40%”, the clinical outcome ([7]; after taking oxymatrine for six months) was “felt well” and the clinical outcome ([7]; at the end of three months, minimal discomfort in a few muscle groups) was “felt well”. For the same compound, the “routine laboratory tests including CBC, chemistry panel and creatine phosphokinase (CPK)” value ([7]; one week after starting oxymatrine) was “normal”, the “myalgia (pain)” value ([7]; three days after taking 300 mg bid, 7/10 before) was 10/10 and the “elevation of liver enzymes” value ([8]; about two months after start, returned to normal within six weeks after tapering to 200 mg bid) was 3.5 times normal values. The “repeat bronchial washing culture” value ([8]; bronchoscopy six months after onset of oxymatrine therapy, with anti-MAC medications) was “no growth of MAC”, the “repeat computed tomography scans of the chest” value ([8]; in vivo) was “healing and calcifications of the lesions” and the tolerability ([8]; in vivo) was “tolerated well”. The night sweats ([8]; within two months) was “decreased from twice a week to once every two weeks”.

Source: patent EP2307018B1, “OXYMATRINE COMPOSITIONS AND USE THEREOF FOR TREATING AND PREVENTING CHRONIC INFECTIOUS DISEASES” (Chia, John K.S., priority 2008, dated 2010)
